From patent publication US20220296635A1 (Board of Regents, The University of Texas System, priority 2013, published 2022)

Columns and labels:
[1] = system: Bone marrow stromal cells (BMSCs); experiment: Calcium nodule formation in BMSC cultures (Von Kossa staining); type: cell-based, Sprague-Dawley rats; conditions: 12 days of osteogenic induction
Protocol: Methods of promoting bone growth according to some embodiments described herein were carried out as follows. Bone marrow stromal cells (BMSCs) derived from 6 week old male Sprague-Dawley rats were cultured in growth medium containing Minimum Essential Medium Alpha (αMEM) supplemented with 10% (V/V) fetal bovine serum (FBS), 0.25 μg/mL Fungizone, and 1% (V/V) penicillin and streptomycin in 6-well plates at a density of 2×10^5 cells/well (Day 0). […] After 12 days of osteogenic induction, the BMSCs cultures were stained with Von Kossa staining and imaged by optical microscopy. The numbers of calcium nodules per well were counted in the inverted microscope. The total area of the calcium nodules was also calculated. FIG. 6A illustrates microscope images of Von Kossa staining. FIG. 6B illustrates the number of observed calcium nodules. FIG. 6C illustrates the total area of the calcium nodules.

[2] = system: osteopontin (OPN); experiment: Osteopontin protein level in hMSCs by Western Blot; type: cell-based, Human; conditions: 20 μM, 200 μM or 2000 μM citrate; 7 days and 14 days
Protocol: (§1) Methods of promoting bone growth according to some embodiments described herein were carried out as follows. Human mesenchymal stem cells (hMSCs) (Lonza Walkersville Inc., USA) were cultured in Dulbecco's Modified Eagle's Medium (DMEM) supplemented with 10% FBS and 1% penicillin and streptomycin. For differentiation, hMSCs were switched to an osteogenic medium (OGM) comprising the previous DMEM-based medium further supplemented with 10^−7 M β-glycerophosphate and 50 μM ascorbic acid-2-phosphate. The hMSC cells were seeded at a density of 10^4 cells/mL after 80-90% confluence in 96-well plates. […] Media were changed every other day.

[3] = system: Human mesenchymal stem cells (hMSCs); experiment: Calcium deposit formation in differentiated hMSC cultures (Von Kossa staining); type: cell-based; conditions: 20 μM citrate, osteogenic medium; 7, 14 and 21 days
Protocol: as §1, with “For differentiation, hMSCs were switched to an osteogenic medium (OGM) comprising the previous DMEM-based medium further supplemented with 10^−7 M β-glycerophosphate and 50 μM ascorbic acid-2-phosphate.” left out

[4] = system: osteosarcoma cells (Saos-2 cells); experiment: Saos-2 cell proliferation (MTT assay); type: cell-based
Protocol: Methods of inhibiting cancer growth according to some embodiments described herein were carried out as follows. […] Human mesenchymal stem cells (hMSCs) (Lonza Walkersville Inc., USA) were cultured in growth medium composed of Dulbecco's Modified Eagle's Medium (DMEM) supplemented with 10% FBS and 1% penicillin/streptomycin and then seeded in a 96-well plates at a density of 10^4 cells/mL after 80-90% confluence. […] The hMSCs were incubated with the citrate-supplemented media at 37° C. with 5% CO2. Media were changed every other day. […] After incubating at 37° C. for 4 hrs in MTT working solution, the hMSCs in the 96-well plates were submerged in dimethylsulfoxide (DMSO) for 15 minutes on an orbital shaker under dark conditions. The 96-well plates were then placed on a Micro-plate Reader to obtain absorbance values at 595 nm. In addition, live/dead staining was carried out at pre-determined time points (1 day, 4 days, and 7 days). The hMSCs were stained with live/dead working solution (Life Technologies Inc., USA) for 30 minutes and then observed under a Nikon Inverted Fluorescence Microscope to determine cell viability.
The hMSCs were cultured as described above. The Saos-2 cells were cultured in McCoy's 5A medium (Lonza Walkersville Inc., USA) supplemented with 10% FBS and 1% penicillin/streptomycin. […]

## O=C(O)CC(O)(CC(=O)O)C(=O)O [citrate, citric acid]
[1]; citrate concentration of 20 μM
  number and size of calcium nodules: induced the highest number of calcium nodules
[1]; citrate-supplemented osteogenic media (2 μM to 5 mM citric acid)
  calcium nodule formation: promoted calcium module formation in a dose-dependent manner
[2]
  OPN expression: closely associated in a dose-dependent relationship
[3]
  calcium deposit formation: able to promote calcium deposit formation
[4]; concentrations above 800 μM, 1 day and 4 days
  Saos-2 cell proliferation: inhibit Saos-2 cell proliferation
[4]; concentrations above 2000 μM
  Saos-2 cell killing: most Saos-2 cells were killed
